Source: the NIST ThermoML archive (doi:10.1016/j.jct.2019.03.023)

Assay: molar heat capacity at constant volume
Details: Fluid (supercritical or subcritical phases), Vacuum adiabatic calorimetry

CC(C)O [propan-2-ol]
Details | molar heat capacity at constant volume [J/K/mol]
510.52 K, Mass density=293.3 kg/m3 | 192.91
510.52 K, Mass density=343.1 kg/m3 | 174.76
510.61 K, Mass density=281.9 kg/m3 | 198.13
510.61 K, Mass density=293.3 kg/m3 | 186.78
510.61 K, Mass density=343.1 kg/m3 | 182.21
510.7 K, Mass density=281.9 kg/m3 | 193.39
510.7 K, Mass density=343.1 kg/m3 | 185.93
510.79 K, Mass density=281.9 kg/m3 | 196.69
510.79 K, Mass density=343.1 kg/m3 | 177.04
510.89 K, Mass density=281.9 kg/m3 | 193.39
510.98 K, Mass density=281.9 kg/m3 | 188.88
511.07 K, Mass density=281.9 kg/m3 | 188.94
511.16 K, Mass density=281.9 kg/m3 | 193.51
511.26 K, Mass density=281.9 kg/m3 | 188.94
511.35 K, Mass density=281.9 kg/m3 | 192.78
511.44 K, Mass density=281.9 kg/m3 | 189
511.53 K, Mass density=281.9 kg/m3 | 191.7
515.15 K, Mass density=293.3 kg/m3 | 182.39
515.24 K, Mass density=293.3 kg/m3 | 178.06
515.33 K, Mass density=293.3 kg/m3 | 182.39
515.42 K, Mass density=293.3 kg/m3 | 173.67
515.51 K, Mass density=293.3 kg/m3 | 178.06
515.61 K, Mass density=293.3 kg/m3 | 173.73
515.7 K, Mass density=293.3 kg/m3 | 178.12
515.79 K, Mass density=293.3 kg/m3 | 185.39
515.88 K, Mass density=293.3 kg/m3 | 178.12
515.98 K, Mass density=234.3 kg/m3 | 168.75
515.98 K, Mass density=293.3 kg/m3 | 174.52
516.07 K, Mass density=234.3 kg/m3 | 174.22
516.16 K, Mass density=234.3 kg/m3 | 168.75
516.25 K, Mass density=234.3 kg/m3 | 163.28
516.34 K, Mass density=234.3 kg/m3 | 174.28
516.44 K, Mass density=234.3 kg/m3 | 163.88
516.53 K, Mass density=234.3 kg/m3 | 168.81
516.62 K, Mass density=234.3 kg/m3 | 168.87
516.71 K, Mass density=234.3 kg/m3 | 163.4
516.71 K, Mass density=281.9 kg/m3 | 181.31
516.81 K, Mass density=234.3 kg/m3 | 168.87
516.81 K, Mass density=281.9 kg/m3 | 181.31
516.9 K, Mass density=234.3 kg/m3 | 168.87
516.9 K, Mass density=281.9 kg/m3 | 176.74
516.99 K, Mass density=281.9 kg/m3 | 176.8
517.08 K, Mass density=281.9 kg/m3 | 185.87
517.18 K, Mass density=281.9 kg/m3 | 176.8
517.27 K, Mass density=281.9 kg/m3 | 181.19
517.54 K, Mass density=274 kg/m3 | 189.48
517.64 K, Mass density=274 kg/m3 | 184.79
517.73 K, Mass density=274 kg/m3 | 180.04
517.82 K, Mass density=274 kg/m3 | 183.77
517.91 K, Mass density=274 kg/m3 | 180.1
518 K, Mass density=274 kg/m3 | 187.14
518.07 K, Mass density=274 kg/m3 | 180.1
518.1 K, Mass density=274 kg/m3 | 183.35
518.28 K, Mass density=274 kg/m3 | 181.73
518.37 K, Mass density=274 kg/m3 | 182.81
518.47 K, Mass density=255.8 kg/m3 | 166.04
518.56 K, Mass density=255.8 kg/m3 | 167.12
518.65 K, Mass density=255.8 kg/m3 | 169.05
518.74 K, Mass density=255.8 kg/m3 | 166.34
518.83 K, Mass density=255.8 kg/m3 | 165.14
518.93 K, Mass density=255.8 kg/m3 | 167.97
519.02 K, Mass density=255.8 kg/m3 | 165.14
519.11 K, Mass density=255.8 kg/m3 | 170.19
519.2 K, Mass density=255.8 kg/m3 | 165.2
519.29 K, Mass density=255.8 kg/m3 | 166.64
519.39 K, Mass density=255.8 kg/m3 | 168.99
521.23 K, Mass density=293.3 kg/m3 | 170.43
521.32 K, Mass density=293.3 kg/m3 | 170.43
521.41 K, Mass density=293.3 kg/m3 | 170.43
521.5 K, Mass density=293.3 kg/m3 | 161.66
521.59 K, Mass density=293.3 kg/m3 | 174.88
521.68 K, Mass density=293.3 kg/m3 | 170.49
521.78 K, Mass density=293.3 kg/m3 | 166.34
521.87 K, Mass density=281.9 kg/m3 | 173.13
521.87 K, Mass density=293.3 kg/m3 | 169.71
521.96 K, Mass density=281.9 kg/m3 | 168.57
522.05 K, Mass density=281.9 kg/m3 | 173.19
522.14 K, Mass density=281.9 kg/m3 | 173.19
522.23 K, Mass density=281.9 kg/m3 | 173.19
522.33 K, Mass density=281.9 kg/m3 | 168.63
522.42 K, Mass density=281.9 kg/m3 | 171.63
522.51 K, Mass density=281.9 kg/m3 | 173.25
522.6 K, Mass density=281.9 kg/m3 | 168.69
524.07 K, Mass density=274 kg/m3 | 171.75
524.16 K, Mass density=274 kg/m3 | 171.75
524.25 K, Mass density=274 kg/m3 | 176.5
524.34 K, Mass density=274 kg/m3 | 176.5
524.43 K, Mass density=274 kg/m3 | 176.56
524.53 K, Mass density=274 kg/m3 | 171.81
524.62 K, Mass density=274 kg/m3 | 176.56
524.71 K, Mass density=274 kg/m3 | 167.12
524.8 K, Mass density=274 kg/m3 | 171.87
